Reference: US20080058356A1, “2,6 Bisheteroaryl-4-Aminopyrimidines as Adenosine Receptor Antagonists” (Neurocrine Biosciences, Inc., priority 2003, published 2008)
One block for each compound: values may come before it.

SMILES: Nc1cc(-n2cccn2)nc(-c2ccc(Cl)o2)n1 [Example 50, 2-(5-Chloro-2-furyl)-6-(1H-pyrazol-1-yl)pyrimidin-4-amine]
melting point: 209.9 to 211 °C

SMILES: CCC(=O)Nc1cc(-n2cccn2)nc(-c2ccc(Cl)o2)n1 [Example 51, N-[2-(5-Chloro-2-furyl)-6-(1H-pyrazol-1-yl)pyrimidin-4-yl]propanamide]
melting point: 189.3 to 190.1 °C

SMILES: CCC(=O)Nc1cc(-c2cccnc2)nc(-c2ccco2)n1 [Example 54, N-[2-(2-Furyl)-6-pyridin-3-ylpyrimidin-4-yl]propanamide]
melting point: 251.8 to 253.2 °C

SMILES: Nc1cc(-c2cccnc2)nc(-c2ccco2)n1 [Example 55, 2-(2-Furyl)-6-pyridin-3-ylpyrimidin-4-amine]
melting point: 232.7 to 233.1 °C

SMILES: c1coc(-c2nc(NCC3CC3)cc(-n3cccn3)n2)c1 [Example 119, N-(Cyclopropylmethyl)-2-(2-furyl)-6-(1H-pyrazol-1-yl)pyrimidin-4-amine]
melting point: 100.9 to 101.7 °C

SMILES: NCCNc1cc(-n2cccn2)nc(-c2ccco2)n1 [Example 122, N-[2-(2-Furyl)-6-(1H-pyrazol-1-yl)pyrimidin-4-yl]ethane-1,2-diamine]
melting point: 104.1 to 105.1 °C

SMILES: c1ccc(CCNc2cc(-n3cccn3)nc(-c3ccco3)n2)nc1 [Example 125, 2-(2-Furyl)-6-(1H-pyrazol-1-yl)-N-[2-(pyridin-2-yl)ethyl]pyrimidin-4-amine]
melting point: 110.2 to 110.9 °C

SMILES: OCCCNc1cc(-n2cccn2)nc(-c2cccs2)n1 [Example 131, 3-{[6-(1H-Pyrazol-1-yl)-2-(2-thienyl)pyrimidin-4-yl]amino}propan-1-ol]
melting point: 129.9 to 130.8 °C

SMILES: NCCNc1cc(-n2cccn2)nc(-c2cccs2)n1 [Example 132, N-(2-Aminoethyl)-N-[6-(1H-pyrazol-1-yl)-2-(2-thienyl)pyrimidin-4-yl]amine]
melting point: 146.6 to 147.1 °C

Further lines, results first:

melting point: 90 to 91.9 °C
SMILES: c1ccc([C@H]2C[C@@H]2Nc2cc(-c3ccco3)nc(-c3nccs3)n2)cc1 (relative stereo) [Example 198, 6-(2-Furyl)-N-[(1S*,2R*)-2-phenylcyclopropyl]-2-(1,3-thiazol-2-yl)pyrimidin-4-amine]

melting point: 116.2 to 117.3 °C
SMILES: COc1ccc(CCNc2cc(-n3cccn3)nc(-c3cccs3)n2)cc1OC [Example 134, N-[2-(3,4-Dimethoxyphenyl)ethyl]-6-(1H-pyrazol-1-yl)-2-(2-thienyl)pyrimidin-4-amine]

melting point: 83 to 83.8 °C
SMILES: COc1ccc(CCNc2cc(-c3ccco3)nc(-c3nccs3)n2)cc1OC [Example 196, N-[2-(3,4-Dimethoxyphenyl)ethyl]-6-(2-furyl)-2-(1,3-thiazol-2-yl)pyrimidin-4-amine]

melting point: 147.8 to 148.5 °C
SMILES: COc1ccc(COC(=O)Nc2cc(-n3cccn3)nc(-c3ccco3)n2)cc1OC [Example 202, 3,4-Dimethoxybenzyl [2-(2-furyl)-6-(1H-pyrazol-1-yl)pyrimidin-4-yl]carbamate]
